This note sets out measurements from ChEMBL document CHEMBL3271949, “Drugs derived from cannabinoids. 3. Sulfur analogs, thiopyranobenzopyrans and thienobenzopyrans” (J Med Chem, 1976).

Data set [1] is described as follows: Toxicity in po dosed mouse. In kind it is organism-based. Particulars: in vivo.
The subject of data set [2] is Rattus norvegicus. Description: Spontaneous motor activity in Long-Evans rat at 5 mg/kg measured up to 2 hrs relative to control. In kind it is functional.
The test system of data set [3] is Mus musculus. In words: Antidepressant activity in mouse assessed as potentiation of (+/-)-dopa-induced motor responses at 5 mg/kg, po administered 4 hrs before dopa challenge. The data set is classed as functional, organism-based. Further details: dose 5 mg/kg.
In data set [4] the test system is Rattus norvegicus. Description: Antihypertensive activity in spontaneous hypertensive rat assessed as reduction of blood pressure at 10 mg/kg, po after 24 hrs. In kind it is functional. Further details: scale not given: the % may be the effect or the level left.
The test system of the next data set is Felis catus. In words: Sedative-hypnotic activity in po dosed cat assessed as rapid eye movement sleep. In kind it is functional, organism-based.
For data set [5], the system named is Mus musculus. Description: Antinociceptive activity in po dosed mouse assessed as inhibition of acetic acid-induced writhing administered 30 mins before acetic acid challenge measured after 5 to 20 mins. In kind it is functional.
In data set [6] the test system is Rattus norvegicus. In words: Analgetic activity in po dosed Sprague-Dawley rat assessed as pain threshold after 15 to 90 mins by tail-flick test. In kind it is functional.
The test system of data set [7] is Mus musculus. In words: Tranquilizer activity in albino BALB/cJ mouse assessed as reduction in footshock-induced fighting behavior at 10 mg/kg, po after 90 mins. The data set is classed as functional. Details: scale not given: the % may be the effect or the level left.
Data set [8] has as its system Canis familiaris. In words: Toxicity in beagle-like dog assessed as reduced reactivity with ataxia observed for 24 hrs at 1 mg/kg, po single dose. The data set is classed as organism-based, Canis lupus familiaris. Further details: dose 1 mg/kg, route oral. Particulars: in vivo.
The subject of data set [9] is Rattus norvegicus. Description: Antihypertensive activity in spontaneous hypertensive rat assessed as reduction of blood pressure at 10 mg/kg, po after 4 hrs. In kind it is functional. Details: scale not given: the % may be the effect or the level left.
Data set [10] is filed under the species Mus musculus. In words: Analgetic activity in mouse by hot-plate test. In kind it is functional.
The test system of data set [11] is Rattus norvegicus. In words: Antihypertensive activity in spontaneous hypertensive rat assessed as reduction of blood pressure at 10 mg/kg, po after 48 hrs. In kind it is functional. Details: scale not given: the % may be the effect or the level left.
Data set [12] deals with Mus musculus. Description: Tranquilizer activity in albino BALB/cJ mouse assessed as reduction in footshock-induced fighting behavior at 5 mg/kg, po after 90 mins. In kind it is functional. Further details: scale not given: the % may be the effect or the level left.
The subject of data set [13] is Canis familiaris. Description: Toxicity in beagle-like dog assessed as reduced reactivity with ataxia observed for 24 hrs at 10 mg/kg, po single dose. In kind it is organism-based, Canis lupus familiaris. Details: dose 10 mg/kg, route oral. Particulars: in vivo.
The test system of data set [14] is Rattus norvegicus. Description: Spontaneous motor activity in Long-Evans rat at 10 mg/kg measured up to 2 hrs relative to control. The data set is classed as functional.
The subject of data set [15] is Canis familiaris. Description: Toxicity in beagle-like dog assessed as reduced reactivity with ataxia observed for 24 hrs at 0.1 mg/kg, po single dose. The data set is classed as organism-based, Canis lupus familiaris. Further details: dose 0.1 mg/kg, route oral. Particulars: in vivo.

Activity calls are given as the source filed them. A value given as a limit tells only on which side of the number the result lay.

Consider `CCCCCC(C)C(C)c1cc(O)c2c(c1)OC(C)(C)C1=C2CCCS1` (stereo unspecified) [TINABINOL], for which the LD50 in data set [1] was over 300 mg/kg. Further, the Activity in the data set with Rattus norvegicus [2] is 1%; in the data set with Rattus norvegicus [4], 28%; in the data set with Mus musculus [7], 1%; with Canis familiaris [8], “Toxic”; in the data set with Rattus norvegicus [9], 15%; in the data set with Rattus norvegicus [11] it was 19%. Further, the outcome in the data set with Mus musculus [3] was Active. In addition, in the data set with Felis catus, the result was inactive. Further, the ED50 in the data set on Mus musculus [5] was 8.6 mg/kg; in the data set on Rattus norvegicus [6], 2.7 mg/kg; in the data set listed under Mus musculus [10], 5.7 mg/kg.

Regarding `CCCCCC(C)C(C)c1cc(OC(=O)CCCN2CCCCC2)c2c(c1)OC(C)(C)C1=C2CCCS1.Cl` (stereo unspecified), the LD50 in data set [1] was over 300 mg/kg. For the same molecule, the Activity turned out to be 66% in the data set with Rattus norvegicus [2] and 1% in the data set with Mus musculus [12]. Besides, the outcome with Mus musculus [3] was Active. Also, the ED50 in the data set on Mus musculus [5] is 14.7 mg/kg.

In data set [1], `CCCCCC(C)C(C)c1cc(O)c2c(c1)OC(C)(C)C1=C2CCSC1` (stereo unspecified) registered an LD50 of over 300 mg/kg. Also, in the data set on Mus musculus [3], the result was Active. The ED50 in the data set on Mus musculus [5] and in the data set filed under Mus musculus [10] was over 40 mg/kg in each case. Further, the Activity entry with Canis familiaris [13] was “Toxic”; with Rattus norvegicus [14], 1%; in the data set with Mus musculus [12], 1%.

Molecule `CCCCCC(C)C(C)c1cc(OC(=O)CCCN2CCCCC2)c2c(c1)OC(C)(C)C1=C2CCS1.Cl` (stereo unspecified) gave an LD50 in data set [1] of over 300 mg/kg. Moreover, the Activity in the data set with Rattus norvegicus [2] is reported as 1%; in the data set on Mus musculus [7], 33%; with Canis familiaris [8], “Non-toxic”. Moreover, the outcome in the data set with Mus musculus [3] was Active. Also, the ED50 in the data set on Mus musculus [5] came out at 24 mg/kg.

Molecule `CCCCCC(C)C(C)c1cc(O)c2c(c1)OC(C)(C)C1=C2CSC1` (stereo unspecified) gave an LD50 in data set [1] of over 300 mg/kg. The Activity is on record as 1% in the data set on Rattus norvegicus [2], “Toxic” with Canis familiaris [13] and 33% in the data set on Mus musculus [7]. The outcome with Mus musculus [3] was Active. For the same molecule, the ED50 in the data set with Mus musculus [5] is 51.7 mg/kg; in the data set listed under Mus musculus [10], over 120 mg/kg.

Take `CCCCCC(C)C(C)c1cc(OC(=O)C(C)CCN2CCOCC2)c2c(c1)OC(C)(C)C1=C2CCCS1.Cl.O` (stereo unspecified): the LD50 in [1] is over 300 mg/kg. For the same molecule, the values for the Activity in the data set on Rattus norvegicus [2] and with Mus musculus [7] were 1% and 66%, respectively. Besides, the outcome in the data set with Mus musculus [3] was Active. Further, in the data set on Felis catus, the outcome was inactive. Also, the median effective dose (ED50) with Mus musculus [5] was found to be 22.6 mg/kg.

`CCCCCC(C)C(C)c1cc(OC(=O)CCCN2CCOCC2)c2c(c1)OC(C)(C)C1=C2CCS1.Cl` (stereo unspecified) had an LD50 in data set [1] of over 300 mg/kg. Besides, the Activity with Rattus norvegicus [2] was 1%; in the data set on Mus musculus [7], 33%; with Canis familiaris [8], “Non-toxic”; in the data set on Mus musculus [12], 1%. The result with Mus musculus [3] was Active. Also, the ED50 in the data set filed under Mus musculus [10] was over 50 mg/kg.

`CCCCCC(C)C(C)c1cc(O)c2c(c1)OC(C)(C)c1sccc1-2` (stereo unspecified) had an LD50 in [1] of over 300 mg/kg. In addition, the Activity in the data set on Rattus norvegicus [2] and in the data set with Mus musculus [7] was 1% throughout. The outcome with Mus musculus [3] was Active. In the data set with Mus musculus [5], the ED50 is over 10 mg/kg.

In [1], `CCCCCC(C)C(C)c1cc(O)c2c(c1)OC(C)(C)C1=C2CCS1` (stereo unspecified) had an LD50 of over 300 mg/kg. Moreover, the Activity entry is on record as “Toxic” with Canis familiaris [15]; 1% in the data set on Rattus norvegicus [2]; 2% in the data set on Rattus norvegicus [4]; 33% in the data set with Mus musculus [7]; 17% in the data set with Rattus norvegicus [9]; 1% in the data set with Mus musculus [12]. Besides, the result with Mus musculus [3] and in the data set on Felis catus was Active. Moreover, the ED50 was found to be 71.8 mg/kg in the data set with Mus musculus [5] and 12.1 mg/kg in the data set listed under Mus musculus [10].
